Calls of active or inactive are those of the source. The calls are words filed in the database; no cut-off is given here.
Tests used:
[1] = target: T1, Inosine-5'-monophosphate dehydrogenase 2 (Homo sapiens, UniProt P12268); experiment: Inhibition of IMPDH2
[2] = target: T1, Inosine-5'-monophosphate dehydrogenase 2; experiment: Inhibition of IMPDH2 at 50 uM

IC50 [1] [µM] | inhibition [2] | SMILES
2.32 | – | Nc1ccc2c(-c3ccsc3)c[nH]c2c1
– | 62% | Cn1cc(-c2ccncc2)c2ccc(Br)cc21
– | inactive | c1cncc(-c2c[nH]c3ccccc23)c1
0.524 | – | Nc1cccc2c(-c3ccncc3)c[nH]c12
7.66 | – | Cn1cc(C#N)c2ccccc21
6.21 | – | Cn1cc(-c2ccoc2)c2ccccc21
27.9 | – | Nc1ccc2c(-c3cncs3)c[nH]c2c1
0.408 | – | Brc1ccc2c(-c3ccncc3)c[nH]c2c1
6.84 | – | Cn1cc(C=O)c2ccccc21
0.637 | – | Nc1ccc2c(-c3ccncc3)c[nH]c2c1
8.2 | – | COc1cc(N)ccc1-c1cnco1
5.84 | – | c1ccc2c(-c3ccoc3)c[nH]c2c1
22.7 | – | O=Cc1c[nH]c2ccccc12 [3-FORMYLINDOLE]
– | inactive | Cc1cc(-c2c[nH]c3cc(N)ccc23)ccn1
– | 50% | Cn1cc(C(N)=O)c2ccccc21
1.15 | – | c1ccc2c(-c3ccncc3)c[nH]c2c1
0.419 | – | Cc1[nH]c2cc(N)ccc2c1-c1ccncc1
0.343 | – | Cc1[nH]c2ccccc2c1-c1ccncc1
– | inactive | NC(=O)c1c[nH]c2ccccc12

SMILES | IC50 [1] [µM] | inhibition [2]
N#Cc1c[nH]c2ccccc12 | 20.9 | –

From ChEMBL document CHEMBL1147020, “Low molecular weight indole fragments as IMPDH inhibitors” (Bioorg Med Chem Lett, 2006)
